Test results from ChEMBL document CHEMBL5385901, “Drug repurposing of propafenone to discover novel anti-tumor agents by impairing homologous recombination to delay DNA damage recovery of rare disease conjunctival melanoma” (Eur J Med Chem, 2023).
Calls of active or inactive are those of the source. The calls are words filed in the database; no cut-off is given here.

What was measured:
[1] = Inhibition of homologous recombination in human CRMM-1 cells at 10 uM incubated for 12 hrs by real-time PCR analysis relative to control; type: functional
[2] = Antiproliferative activity against human PIG1 cells assessed as cell growth inhibition incubated for 72 hrs by CCK8 assay; type: toxicity, cell-based
CRMM-2 = experiment: Antiproliferative activity against human CRMM-2 cells assessed as cell growth inhibition incubated for 72 hrs by CCK8 assay; type: functional, cell-based; conditions: CRMM-2, 72 h
CRMM-1 [3] = experiment: Antiproliferative activity against human CRMM-1 cells assessed as cell growth inhibition incubated for 72 hrs by CCK8 assay; type: functional, cell-based; conditions: CRMM-1, 72 h
[4] = Antiproliferative activity against human CM2005.1 cells assessed as cell growth inhibition incubated for 72 hrs by CCK8 assay; type: functional, cell-based; conditions: CM2005.1, 72 h
[5] = Antiproliferative activity against human HL7702 cells assessed as cell growth inhibition incubated for 72 hrs by CCK8 assay; type: toxicity, cell-based; conditions: HL7702 (L02) cells
[6] = Antiproliferative activity against human CM-AS16 cells assessed as cell growth inhibition incubated for 72 hrs by CCK8 assay; type: functional, cell-based; conditions: CM-AS16, 72 h
CRMM-1 [7] = experiment: Inhibition of homologous recombination in human CRMM-1 cells at 10 uM incubated for 12 hrs by real-time PCR analysis; type: functional, cell-based

Row | SMILES | inhibition at 10 µM [1] [%] | IC50 at 72 h [2] [µM] | IC50 (CRMM-2) [µM] | IC50 (CRMM-1 [3]) [µM] | IC50 [4] [µM] | IC50 at 72 h [5] [µM] | IC50 [6] [µM] | inhibition (CRMM-1 [7])
1 | Cc1cncc(COc2ccc3ccccc3c2C(=O)CCCc2ccccc2)c1 | 47.1 | 29.1 | 38.3 | 21.5 | 33 | 95.4 |  | 
2 | CC(C)(C)CNCCCOc1ccc2ccccc2c1C(=O)CCCc1ccccc1 | 52.4 | 4 | 5.1 | 8.7 | 5.1 | 11.1 | 5 | 
3 | CCCCCCNCCCOc1ccccc1C(=O)CCCc1ccccc1 | 57.2 | 9.2 | 1.6 | 6.5 | 15.8 | 10.6 | 5.9 | 
4 | O=C(CCCc1ccccc1)c1c(OCCCNC2CC2)ccc2ccccc12 | 29.3 | 8 | 16.4 | 10.3 | 10.4 | 32.4 | 14.2 | 
5 | CCCNCCCOc1cccc2cccc(C(=O)CCCc3ccccc3)c12 | 59 | 6.8 | 5.9 | 9.8 | 8.4 | 10.2 | 8.8 | 
6 | CCCNCC(O)COc1ccccc1C(=O)CCCc1ccccc1 (centres undefined) | 62.2 | 33.2 | 28.7 | 25.3 | 25.2 | 46 | 4.9 | 
7 | CCCNCCCOc1ccc2ccccc2c1C(=O)CCCc1ccccc1 | 75.2 | 78.2 | 3.8 | 3.1 | 4.1 | 28.8 | 4 | 
8 | O=C(CC(F)(F)F)NCCCOc1ccc2ccccc2c1C(=O)CCCc1ccccc1 | 40.1 | 18.5 | 42.2 | 9.8 | 19.4 | 29.9 | 21.4 | 
9 | CCCNCC(O)COc1ccc(C(=O)CCc2ccccc2)cc1 (centres undefined) | 5.5 | 26.8 | 21 | 28.5 | 56.2 | 44 | 18.9 | 
10 | O=C(CCc1ccccc1)c1ccccc1 |  |  | > 100 | > 100 |  |  | > 100 | 
11 | CCCOCC(=O)COc1ccccc1C(=O)CCc1ccccc1 | 20.6 | 56.7 | 28.7 | 41.8 | 40.9 | 73.1 | 36.8 | 
12 | CCCOCC(O)COc1ccccc1C(=O)CCc1ccccc1 (centres undefined) | 20.1 | 73.8 | 28.9 | 20.9 | 53 | 65 | 13.7 | 
13 | CCCNCC(O)COc1ccccc1CCCc1ccccc1 (centres undefined) | 57 | 15.7 | 20.9 | 9.2 | 9.6 | 19.3 | 6 | 
14 | CCCNCC(O)COc1ccccc1C(O)CCc1ccccc1 (centres undefined) | 15.7 | 89.6 | 14.9 | 55.4 | 73.3 | 71.5 | 18.7 | 
15 | CCCNCCCOc1c(C(=O)CCCc2ccccc2)ccc2ccccc12 | 59.3 | 14.5 | 7.5 | 7.2 | 11.7 | 28.4 | 10.8 | 
16 | CCCNCCCOc1ccccc1C(=O)CCc1ccccc1 | 65 | 66.4 | 35.9 | 54.5 | 68.5 | 64.8 | 10 | 
17 | O=C(CCCc1ccccc1)c1c(OCCCN2CCSC2)ccc2ccccc12 | 72.1 | 29.7 | 6.6 | 10.2 | 11.9 | 51.5 | 9.2 | 
18 | CCCNCC(O)COc1ccccc1 (centres undefined) |  |  | > 100 |  |  |  | > 100 | 
19 | C=CC(=O)NCCCOc1ccc2ccccc2c1C(=O)CCCc1ccccc1 | 66.9 | 25.7 | 17.2 | 17.3 | 36.9 | 70.2 | 18.2 | 
20 | CCC(C)(C)NCCCOc1ccc2ccccc2c1C(=O)CCCc1ccccc1 | 44.6 | 5.7 | 3.7 | 4.8 | 4.1 | 10.4 | 3.1 | 
21 | CCCNCC(O)COc1cccc(C(=O)CCc2ccccc2)c1 (centres undefined) | 52.5 | 62.4 | 22.3 | 28.3 | 38 | 69.1 | 16.5 | 

Row | SMILES | inhibition at 10 µM [1] [%] | IC50 at 72 h [2] [µM] | IC50 (CRMM-2) [µM] | IC50 (CRMM-1 [3]) [µM] | IC50 [4] [µM] | IC50 at 72 h [5] [µM] | IC50 [6] [µM] | inhibition (CRMM-1 [7])
22 | CCCNCC(O)COc1ccccc1C(=O)NCc1ccccc1 (centres undefined) |  |  |  |  |  |  | > 100 | 
23 | O=C(CCCc1ccccc1)c1c(OCCCN2CCCC2)ccc2ccccc12 | 71 | 7.8 | 8 | 5.6 | 12.8 | 22 | 11.9 | 
24 | CCCNCC(O)COc1ccccc1C(=O)Cc1ccccc1 (centres undefined) | 57.9 | > 100 | 30.6 | 45.9 | 60 | > 100 | 40.7 | 
25 | CCCCNCCCOc1ccccc1C(=O)CCCc1ccccc1 | 38.3 | 9.1 | 1.1 | 1.8 | 5.4 | 3.7 | 4.9 | 
26 | CCCNCCCOc1cc2c(cc1C(=O)CCCc1ccccc1)OCO2 | 43 | 15.5 | 8.2 | 6.9 | 6.8 | 32.7 | 10.8 | 
27 | CCCCCCCNCC(O)COc1ccccc1C(=O)CCc1ccccc1 (centres undefined) | 53.9 | 8.8 | 6.6 | 2.6 | 4.6 | 5.7 | 5.6 | 
28 | O=C(CCCc1ccccc1)c1c(OCCCn2cccc2)ccc2ccccc12 |  | 75.2 | 50.6 | 75.9 | 99.2 | 95.5 |  | 
29 | CCCCCC(O)COc1ccccc1C(=O)CCc1ccccc1 (centres undefined) | 51.2 | > 100 | 54.5 | 16.6 | 46.3 | 22.3 | 13.9 | 
30 | CCCNCCCOc1ccccc1C(=O)CCCc1ccccc1 | 71.6 | 1.7 | 3.2 | 2 | 2.6 | 32.9 | 2.1 | 
31 | CN1CCN(CCCOc2ccc3ccccc3c2C(=O)CCCc2ccccc2)CC1 | 54.2 | 10.4 | 4.2 | 5.6 | 5.9 | 10.5 | 5.2 | 
32 | CCCN(C)CC(O)COc1ccccc1C(=O)CCc1ccccc1 (centres undefined) | 30.3 | 71.9 | 14.6 | 48.7 | 61.2 | 97.2 | 22.6 | 
33 | CCCN1CC(COc2ccccc2C(=O)CCc2ccccc2)OC1=O (centres undefined) |  |  |  |  |  |  | > 100 | inactive
34 | O=C(CCCc1ccccc1)c1c(OCCCN2CCC2)ccc2ccccc12 | 17.9 | 42.1 | 38.4 | 20.6 | 32.9 | 69.6 | 32.3 | 
35 | O=C(CCCc1ccccc1)c1c(OCCCN2CCOCC2)ccc2ccccc12 | 83.2 | 18.3 | 4.2 | 2.3 | 1 | 31.8 | 4.2 | 
36 | CCCNCCCOc1cc2ccccc2cc1C(=O)CCCc1ccccc1 | 67.1 | 13.6 | 6.7 | 10.4 | 6.6 | 11.9 | 6.8 | 
37 | CC(C)(C)C(=O)NCCCOc1ccc2ccccc2c1C(=O)CCCc1ccccc1 | 55 | 14.2 | 29.6 | 13.1 | 35.9 | 39.9 |  | 
38 | CCCCCCCNCCCOc1ccccc1C(=O)CCCc1ccccc1 | 64.8 | 0.5 | 0.6 | 1.1 | 1.3 | 0.7 | 6.3 | 
39 | C#CCNCCCOc1ccc2ccccc2c1C(=O)CCCc1ccccc1 | 53.2 | 16 | 4 | 6.4 | 11.7 | 30.7 | 4.6 | 
40 | C=CCNCCCOc1ccc2ccccc2c1C(=O)CCCc1ccccc1 | 55.7 | 11.4 | 3.1 | 2.2 | 7.6 | 10.5 | 3.8 | 
41 | O=C(CCCc1ccccc1)c1c(OCc2cccnc2)ccc2ccccc12 |  | 24.9 | 48.5 | 16 | 58.1 | 64.9 |  | inactive
42 | CCC(=O)NCCCOc1ccc2ccccc2c1C(=O)CCCc1ccccc1 | 35 | 19.5 | 9.3 | 8.2 | 37.7 | 29.5 | 9 | 
